ChEMBL document CHEMBL3259572, “Euodenine A: a small-molecule agonist of human TLR4” (J Med Chem, 2014)
The source made the active and inactive calls. The calls are words filed in the database; no cut-off is given here.

Legend:
PBMC [1] = assay: Induction of IL-8 production in human PBMC at 10 uM by ELISA; format: functional, cell-based
PBMC [2] = assay: Induction of TNFalpha production in human PBMC at 10 uM by ELISA; format: functional, cell-based
PBMC [3] = assay: Induction of IL-12p40 production in human PBMC at 10 uM by ELISA; format: functional, cell-based
[4] = molecular target: T1, Toll-like receptor 9 (Homo sapiens) (UniProt Q9NR96); assay: Agonist activity at human recombinant TLR9 expressed in HEK293 cells at 10 uM by SEAP reporter assay; format: cell-based
T1 sequence (whole entry): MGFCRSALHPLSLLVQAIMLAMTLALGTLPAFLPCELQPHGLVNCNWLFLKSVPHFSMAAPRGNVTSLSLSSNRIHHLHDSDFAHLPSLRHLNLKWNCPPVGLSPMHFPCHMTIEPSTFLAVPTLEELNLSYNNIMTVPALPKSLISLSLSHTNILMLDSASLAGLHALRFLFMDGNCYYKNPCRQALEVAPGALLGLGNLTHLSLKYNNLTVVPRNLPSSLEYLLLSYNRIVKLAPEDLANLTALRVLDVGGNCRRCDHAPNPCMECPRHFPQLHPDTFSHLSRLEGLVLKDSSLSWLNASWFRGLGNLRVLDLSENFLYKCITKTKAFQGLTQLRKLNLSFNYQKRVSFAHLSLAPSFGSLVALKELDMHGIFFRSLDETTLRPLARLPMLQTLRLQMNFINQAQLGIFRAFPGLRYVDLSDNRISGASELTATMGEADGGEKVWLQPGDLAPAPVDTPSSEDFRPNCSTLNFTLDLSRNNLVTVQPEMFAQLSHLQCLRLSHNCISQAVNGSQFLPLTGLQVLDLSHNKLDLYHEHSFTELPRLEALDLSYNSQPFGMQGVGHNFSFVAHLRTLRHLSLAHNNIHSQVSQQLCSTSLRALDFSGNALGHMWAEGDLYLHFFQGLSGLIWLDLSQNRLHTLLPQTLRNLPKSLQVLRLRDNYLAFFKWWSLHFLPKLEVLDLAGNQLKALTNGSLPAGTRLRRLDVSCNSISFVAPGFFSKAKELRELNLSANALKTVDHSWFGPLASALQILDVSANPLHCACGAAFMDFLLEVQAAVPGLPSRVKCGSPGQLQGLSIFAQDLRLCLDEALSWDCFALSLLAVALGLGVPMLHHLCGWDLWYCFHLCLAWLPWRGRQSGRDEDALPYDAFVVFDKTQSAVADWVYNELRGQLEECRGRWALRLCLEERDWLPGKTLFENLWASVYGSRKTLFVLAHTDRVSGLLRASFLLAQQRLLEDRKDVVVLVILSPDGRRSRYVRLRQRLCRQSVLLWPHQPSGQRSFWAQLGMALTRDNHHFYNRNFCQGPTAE

HEK293 = assay: Agonist activity at chimeric extracellular domain of human TLR4 fused with mouse intracellular domain expressed in HEK293 cells by NFkappaB reporter assay; format: cell-based
[5] = Cytotoxicity against human PBMC by WST-1 cell proliferation assay; format: cell-based; details: PBMC (peripheral blood mononuclear cells)
[6] = molecular target: T2, Toll-like receptor 7 (Homo sapiens) (UniProt Q9NYK1); assay: Agonist activity at human recombinant TLR7 expressed in HEK293 cells at 10 uM by SEAP reporter assay; format: cell-based
T2 sequence (whole entry): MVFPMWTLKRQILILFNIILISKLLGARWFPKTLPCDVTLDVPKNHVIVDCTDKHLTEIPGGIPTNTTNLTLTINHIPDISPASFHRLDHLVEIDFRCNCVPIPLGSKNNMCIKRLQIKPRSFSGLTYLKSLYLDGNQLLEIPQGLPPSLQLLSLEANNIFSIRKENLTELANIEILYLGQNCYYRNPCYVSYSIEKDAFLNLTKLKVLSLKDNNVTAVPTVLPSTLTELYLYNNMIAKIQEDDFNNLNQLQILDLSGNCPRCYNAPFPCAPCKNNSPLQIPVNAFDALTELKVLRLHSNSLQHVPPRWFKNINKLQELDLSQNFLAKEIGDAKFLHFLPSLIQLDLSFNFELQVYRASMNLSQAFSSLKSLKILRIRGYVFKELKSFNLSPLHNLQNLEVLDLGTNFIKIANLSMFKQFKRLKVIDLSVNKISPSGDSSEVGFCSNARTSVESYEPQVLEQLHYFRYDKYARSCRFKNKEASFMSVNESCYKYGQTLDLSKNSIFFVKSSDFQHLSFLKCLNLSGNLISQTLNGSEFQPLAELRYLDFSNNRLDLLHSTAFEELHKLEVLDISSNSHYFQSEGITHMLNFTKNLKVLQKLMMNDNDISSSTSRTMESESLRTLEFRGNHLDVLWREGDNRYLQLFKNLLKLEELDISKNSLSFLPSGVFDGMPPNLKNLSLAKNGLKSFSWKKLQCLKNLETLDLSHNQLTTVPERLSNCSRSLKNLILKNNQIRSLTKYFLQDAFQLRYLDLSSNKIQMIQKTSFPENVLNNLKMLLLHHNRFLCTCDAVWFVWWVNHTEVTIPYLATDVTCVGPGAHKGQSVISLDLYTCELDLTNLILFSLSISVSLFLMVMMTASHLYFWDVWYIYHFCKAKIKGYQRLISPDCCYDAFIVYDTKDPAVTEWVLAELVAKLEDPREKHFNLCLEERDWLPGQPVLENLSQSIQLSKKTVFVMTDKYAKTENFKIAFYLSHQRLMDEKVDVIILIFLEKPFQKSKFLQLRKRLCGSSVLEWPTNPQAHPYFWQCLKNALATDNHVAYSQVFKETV

PBMC [7] = assay: Induction of IL-10 production in human PBMC at 10 uM by ELISA; format: functional, cell-based
Toll-like receptor 4 [8] = molecular target: T3, Toll-like receptor 4 (Homo sapiens, UniProt O00206); assay: Agonist activity at human recombinant TLR4 expressed in HEK293 cells coexpressed with mouse MD2 assessed as TNFalpha response by NFkappaB reporter assay; format: cell-based
T3 sequence (O00206 whole entry): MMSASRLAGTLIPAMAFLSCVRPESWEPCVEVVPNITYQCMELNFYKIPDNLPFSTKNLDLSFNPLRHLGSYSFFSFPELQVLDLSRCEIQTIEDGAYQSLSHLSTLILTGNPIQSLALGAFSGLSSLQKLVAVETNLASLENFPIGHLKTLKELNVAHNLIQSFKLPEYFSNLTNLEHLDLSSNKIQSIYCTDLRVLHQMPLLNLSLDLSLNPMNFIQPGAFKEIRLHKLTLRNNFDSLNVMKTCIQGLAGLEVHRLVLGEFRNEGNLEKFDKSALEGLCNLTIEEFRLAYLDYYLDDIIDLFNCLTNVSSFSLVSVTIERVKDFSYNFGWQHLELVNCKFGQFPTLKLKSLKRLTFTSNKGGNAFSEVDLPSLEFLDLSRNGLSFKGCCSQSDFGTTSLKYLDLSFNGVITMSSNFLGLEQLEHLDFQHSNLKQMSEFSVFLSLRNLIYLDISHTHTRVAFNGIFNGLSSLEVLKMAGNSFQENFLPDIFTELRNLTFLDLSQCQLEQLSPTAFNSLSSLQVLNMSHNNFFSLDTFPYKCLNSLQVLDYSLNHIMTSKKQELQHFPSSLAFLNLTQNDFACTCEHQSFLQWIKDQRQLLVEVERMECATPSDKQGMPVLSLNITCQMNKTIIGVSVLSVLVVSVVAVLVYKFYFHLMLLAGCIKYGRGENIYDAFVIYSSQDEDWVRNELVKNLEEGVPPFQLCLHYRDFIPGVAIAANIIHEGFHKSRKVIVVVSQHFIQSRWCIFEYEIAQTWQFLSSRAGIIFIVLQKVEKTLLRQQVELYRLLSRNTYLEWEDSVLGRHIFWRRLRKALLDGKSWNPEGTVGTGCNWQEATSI

Toll-like receptor 4 [9] = molecular target: T3, Toll-like receptor 4; assay: Agonist activity at human recombinant TLR4 expressed in HEK293 cells by SEAP reporter assay; format: cell-based
PBMC [10] = assay: Suppression of PHA-induced IL-5 release in human PBMC at 10 uM by ELISA; format: functional, cell-based
PBMC [11] = assay: Cytotoxicity against PHA-stimulated human PBMC at 20 uM by WST-1 cell proliferation assay; format: cell-based
Toll-like receptor 4 [12] = molecular target: T3, Toll-like receptor 4; assay: Agonist activity at human recombinant TLR4 expressed in HEK293 cells coexpressed with human MD2 assessed as TNFalpha response by NFkappaB reporter assay; format: cell-based
[13] = molecular target: Toll-like receptor 5 (Homo sapiens) (UniProt O60602); assay: Agonist activity at human recombinant TLR5 expressed in HEK293 cells at 10 uM by SEAP reporter assay; format: cell-based
Chain of Toll-like receptor 5 (Homo sapiens) (O60602 whole entry): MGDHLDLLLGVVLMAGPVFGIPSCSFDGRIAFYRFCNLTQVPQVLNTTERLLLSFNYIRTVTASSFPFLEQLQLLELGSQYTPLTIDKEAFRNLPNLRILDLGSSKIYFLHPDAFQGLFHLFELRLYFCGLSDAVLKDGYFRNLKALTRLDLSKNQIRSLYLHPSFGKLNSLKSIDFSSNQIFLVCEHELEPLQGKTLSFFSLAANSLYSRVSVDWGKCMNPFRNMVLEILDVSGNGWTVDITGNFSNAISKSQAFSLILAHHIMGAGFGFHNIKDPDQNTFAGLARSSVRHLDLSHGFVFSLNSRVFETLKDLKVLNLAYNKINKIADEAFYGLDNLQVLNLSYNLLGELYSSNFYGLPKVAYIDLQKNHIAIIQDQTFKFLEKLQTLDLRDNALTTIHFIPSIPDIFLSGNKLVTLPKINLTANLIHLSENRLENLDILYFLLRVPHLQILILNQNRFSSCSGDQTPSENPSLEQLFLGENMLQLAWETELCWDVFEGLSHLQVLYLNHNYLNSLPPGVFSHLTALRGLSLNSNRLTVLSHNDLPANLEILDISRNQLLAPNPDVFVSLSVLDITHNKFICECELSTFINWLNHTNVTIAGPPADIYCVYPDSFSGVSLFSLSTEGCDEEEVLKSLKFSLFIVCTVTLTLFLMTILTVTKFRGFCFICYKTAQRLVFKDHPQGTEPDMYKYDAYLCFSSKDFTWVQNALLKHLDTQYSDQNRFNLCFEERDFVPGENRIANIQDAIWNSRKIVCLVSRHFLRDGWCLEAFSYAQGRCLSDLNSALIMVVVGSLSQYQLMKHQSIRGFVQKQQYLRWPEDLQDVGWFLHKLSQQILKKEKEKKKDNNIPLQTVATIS

With COc1cc([C@@H]2[C@@H](C)[C@H]3[C@@H]2c2c(c4ccccc4[nH]c2=O)OC3(C)C)cc(OC)c1OC the Activity (PBMC [1]) was “Active”, the Activity (PBMC [2]) was “Active” and the Activity (PBMC [3]) was “Active”. For the same compound, the Activity [4] was “inactive”, the Activity (HEK293) was “Active” and the CC50 [5] was > 33 µM. For the same compound, the Activity [6] was “inactive”, the Activity (PBMC [7]) was “Active” and the Activity (Toll-like receptor 4 [8]) was “inactive”. For the same compound, the EC50 (Toll-like receptor 4 [9]) was 3.9 µM, the inhibition (PBMC [10]) was “Active” and the Activity (PBMC [11]) was “Non-toxic”. The Activity (Toll-like receptor 4 [12]) was “Active” and the Activity [13] was “inactive”.
